Assay: xn = mol fraction of the nth substance listed
Settings: 101 kPa, Liquid, Vibrating tube method

C=C[Si](C)(C)O[Si](C)(C)C=C [1,3-diethenyl-1,1,3,3-tetramethyldisiloxane] + Fc1ccccc1
mass density [kg/m3]
Settings | 283.15 K | 288.15 K | 293.15 K | 298.15 K | 303.15 K
x1 = 0.05 | 1013.6 | 1007.66 | 1001.73 | 995.86 | 989.74
x1 = 0.1 | 992.96 | 987.08 | 981.21 | 975.37 | 969.31
x1 = 0.15 | 974.59 | 968.74 | 962.94 | 957.17 | 951.1
x1 = 0.1993 | 958.3 | 952.51 | 946.77 | 941.03 | 934.98
x1 = 0.25 | 943.25 | 937.46 | 931.8 | 926.13 | 920.12
x1 = 0.2999 | 929.85 | 924.19 | 918.57 | 913 | 907.17
x1 = 0.35 | 917.58 | 911.93 | 906.37 | 900.84 | 895
x1 = 0.4 | 906.43 | 900.85 | 895.33 | 889.86 | 884.09
x1 = 0.45 | 896.19 | 890.66 | 885.22 | 879.75 | 874.12
x1 = 0.5 | 886.76 | 881.29 | 875.91 | 870.51 | 864.97
x1 = 0.5501 | 878.08 | 872.69 | 867.38 | 862.04 | 856.56
x1 = 0.6 | 870.07 | 864.73 | 859.45 | 854.19 | 848.77
x1 = 0.6501 | 862.6 | 857.33 | 852.11 | 846.89 | 841.53
x1 = 0.7 | 855.69 | 850.46 | 845.29 | 840.15 | 834.87
x1 = 0.7501 | 849.23 | 844.06 | 838.93 | 833.84 | 828.63
x1 = 0.8 | 843.23 | 838.1 | 833.02 | 827.99 | 822.84
x1 = 0.85 | 837.56 | 832.51 | 827.46 | 822.49 | 817.39
x1 = 0.8998 | 832.28 | 827.28 | 822.3 | 817.36 | 812.32
x1 = 0.95 | 827.28 | 822.33 | 817.38 | 812.49 | 807.52
x1 = 1 | 822.56 | 817.66 | 812.74 | 807.9 | 802.97

C=C[Si](C)(C)O[Si](C)(C)C=C [1,3-diethenyl-1,1,3,3-tetramethyldisiloxane] + O=[N+]([O-])c1ccccc1
mass density [kg/m3]
Settings | 283.15 K | 288.15 K | 293.15 K | 298.15 K | 303.15 K
x1 = 0.05 | 1176.35 | 1171.43 | 1166.52 | 1161.69 | 1156.82
x1 = 0.1 | 1142.71 | 1137.83 | 1132.97 | 1128.22 | 1123.45
x1 = 0.15 | 1111.83 | 1106.98 | 1102.13 | 1097.43 | 1092.67
x1 = 0.2 | 1083.35 | 1078.52 | 1073.67 | 1068.96 | 1064.2
x1 = 0.25 | 1057.23 | 1052.41 | 1047.57 | 1042.87 | 1038.12
x1 = 0.3 | 1033.06 | 1028.23 | 1023.4 | 1018.69 | 1013.92
x1 = 0.3508 | 1010.38 | 1005.54 | 1000.74 | 996.01 | 991.23
x1 = 0.4001 | 989.98 | 985.14 | 980.32 | 975.57 | 970.77
x1 = 0.4501 | 970.75 | 965.91 | 961.08 | 956.32 | 951.52
x1 = 0.4999 | 952.93 | 948.07 | 943.22 | 938.45 | 933.61
x1 = 0.55 | 936.17 | 931.3 | 926.44 | 921.66 | 916.81
x1 = 0.6001 | 920.46 | 915.57 | 910.7 | 905.91 | 901.03
x1 = 0.6487 | 906.15 | 901.26 | 896.39 | 891.58 | 886.71
x1 = 0.6999 | 891.87 | 887 | 882.12 | 877.3 | 872.42
x1 = 0.7499 | 878.8 | 873.92 | 869.03 | 864.21 | 859.31
x1 = 0.7999 | 866.41 | 861.51 | 856.6 | 851.77 | 846.84
x1 = 0.8497 | 854.66 | 849.77 | 844.87 | 840.06 | 835.12
x1 = 0.9 | 843.43 | 838.53 | 833.62 | 828.8 | 823.86
x1 = 0.9499 | 832.79 | 827.88 | 822.98 | 818.14 | 813.2
x1 = 1 | 822.64 | 817.73 | 812.82 | 807.98 | 803.03

Source: the NIST ThermoML archive (doi:10.1016/j.jct.2013.12.025)
